From patent publication US8399026B2, “Peptides isolated from spider venom, and uses thereof” (priority 2009, dated 2013)
“Also recorded” adds a separate entry of the source.

What was measured:
spinal-ligated rats = type: in vivo, rat
Protocol: This study aimed to evaluate the analgesic indications of compound C using the Chung model of neuropathic pain in rats. This study was performed at PsychoGenics, Inc., headquartered at 765 Old Saw Mill River Road, Tarrytown, N.Y.
Male Sprague Dawley rats (100-125 g) from Harlan (Indianapolis, Ind.) were used in the study. Upon receipt, rats were assigned unique identification numbers and were group housed with 3 rats per cage in polycarbonate cages with micro-isolator filter tops. All rats were examined, handled, and weighed prior to initiation of the study to assure adequate health and suitability. During the course of the study, 12/12 light/dark cycles were maintained, with lights on at 7:00 am EST. The room temperature was maintained between 20 and 23° C. with a relative humidity maintained around 50%. Chow and water were provided ad libitum for the duration of the study.
All compounds were administered at a dose volume of 5 ml/kg, q.d. for 5 days (Days 17-21 post-surgery). Reference compound: Gabapentin (100 mg/kg; TRC, Lot No. 1-SWM-154-1) was dissolved in 0.5% carboxy-methylcellulose (CMC) in water and administered orally. Test Compound: Compound C (0.25, 0.625, and 1.25 mg/kg; Lot n/a) was dissolved in distilled H2O to a stock concentration (20×), divided into single-use aliquots, and frozen. On each test day, one aliquot was thawed and diluted 20-fold with PBS (pH 7.2), and used as stock for formulation of test doses. Compound C was administered subcutaneously.
Under general anesthesia with continuous inhalation of isoflurane, surgery was performed with aseptic procedures in surgery unit. The skin at the area of the lower lumber and sacral level of the rat was shaved and disinfected with betadine and alcohol. Sterile ophthalmic ointment was used to lubricate the eyes. Animals were observed continuously for the level of anesthesia, testing for the animal's reflex response to tail or paw pinch and closely monitoring the animal's breathing. A heating pad was used to maintain body temperature at 37° C. while the animals recovered from anesthesia. A left longitudinal incision at the level next to the vertebral column was made and the left paraspinal muscles were separated. The transverse process of L6 was removed and nearby connective tissue cleaned to expose L5 and L6 spinal nerves. After the nerves were isolated and clearly visualized, 4-0 silk threads were used to ligate the left L5. The muscles were sutured with 4-0 silk threads and the wound closed by staples. All rats received an analgesic (buprenorphine, 0.05 mg/kg, s.c.) immediately before and 6 hours after surgery. Each rat was monitored until awake and moving freely around the recovery chamber. Animals were then single-housed for the duration of the study. Rats were allowed to recover for 2 weeks after surgery prior to testing.
Withdrawal from a mechanical stimulus was measured by applying von Frey (VF) filaments of ascending bending force to the plantar surface of the hind paws (ipsilateral and contralateral). A positive response was defined as withdrawal from the von Frey filament. Confirmation of the paw withdrawal threshold (PWT) is tested by assessing the response to the filament above and below the withdrawal response.
Rats were brought to the experimental room and allowed to habituate in the room for one hour prior to testing, and acclimated to the observation chambers for 15 minutes prior to taking PWT measurements.
Pre-operative baseline testing: Prior to surgery, all rats were tested using the VF test.
Post-operative baseline testing: On Day 14 following surgery, baseline responses were taken from all surgically-operated rats, and an ipsilateral PWT greater than 4.5 g was used as an exclusion criterion (13 rats excluded). Rats were subsequently balanced and assigned to treatment groups (n=10 per group) based on their post-op PWT values. […]

[1] = test system: mouse embryonic stem cells derived cardiomyocytes (mES-CM); type: cell-based
[2] = baseline of group assigned to 100 mg/kg, mean ± SEM

Row | Structure (SMILES) | ipsilateral paw withdrawal threshold compared to vehicle, chronic (spinal-ligated rats; 100 mg/kg orally q.d. 5 days, Day 21, all time points) | ipsilateral paw withdrawal threshold compared to vehicle, acute (spinal-ligated rats; 100 mg/kg orally, Day 17, data collapsed across 1 and 3 hour time points) | time dependence of effect on ipsilateral paw withdrawal threshold, chronic (spinal-ligated rats; 100 mg/kg orally, Day 21, 1 hr. versus 3 hr. post-administration) | ipsilateral paw withdrawal threshold (PWT), summary (spinal-ligated rats; 100 mg/kg, acute or 5-day administration, 1 and 3 hours following administration) | Contralateral paw withdrawal threshold prior to drug administration (spinal-ligated rats; [2]) | Ipsilateral paw withdrawal threshold prior to drug administration (spinal-ligated rats; [2]) | signs of sedation or toxicity (spinal-ligated rats; during pretreatment or testing, gabapentin 100 mg/kg orally, compound C 0.25, 0.625, 1.25 mg/kg subcutaneously) | effect of positive control on action potential generation in cardiomyocytes [1]
1 | NCC1(CC(=O)O)CCCCC1 [Gabapentin] | significantly increased | significantly increased | significantly greater at 1 hr. compared to 3 hr. post-administration | significantly increased | 48.70 ± 5.83 | 2.94 ± 0.29 | not observed | –
2 | NC1=N[C@H](O)[C@H]2[C@H]3O[C@]4(O)O[C@@H]([C@@H](O)[C@@]2(N1)[C@@H]4O)[C@]3(O)CO [TTX, Tetrodotoxin] | – | – | – | – | – | – | – | only the higher dose inhibited action potential generation; also recorded: quite evident; also recorded: significant action
